Test results: patent US20230322723A1, “COMPOUNDS FOR SUPPRESSING EGFR MUTANT CANCER AND PHARMACEUTICAL USE THEREOF” (J2H BIOTECH INC., priority 2020, published 2023)

Tests used:
EGFR^L858R+T790M+C797S = target: T1, EGFR^L858R+T790M+C797S (Homo sapiens, UniProt P00533, C797S/L858R/T790M); assay: EGFR protein degradation test (Western blot) in Ba/F3 cells expressing mutant EGFR L858R+T790M+C797S (LTC); assay type: cell-based; settings: compounds at 0.1 μM and 1 μM, 24 hours, Western blot with EGFR antibody
T1 construct: expressed in transfected cells; host or cells: Ba/F3
T1 sequence (P00533 25-1210 T790M/C797S/L858R): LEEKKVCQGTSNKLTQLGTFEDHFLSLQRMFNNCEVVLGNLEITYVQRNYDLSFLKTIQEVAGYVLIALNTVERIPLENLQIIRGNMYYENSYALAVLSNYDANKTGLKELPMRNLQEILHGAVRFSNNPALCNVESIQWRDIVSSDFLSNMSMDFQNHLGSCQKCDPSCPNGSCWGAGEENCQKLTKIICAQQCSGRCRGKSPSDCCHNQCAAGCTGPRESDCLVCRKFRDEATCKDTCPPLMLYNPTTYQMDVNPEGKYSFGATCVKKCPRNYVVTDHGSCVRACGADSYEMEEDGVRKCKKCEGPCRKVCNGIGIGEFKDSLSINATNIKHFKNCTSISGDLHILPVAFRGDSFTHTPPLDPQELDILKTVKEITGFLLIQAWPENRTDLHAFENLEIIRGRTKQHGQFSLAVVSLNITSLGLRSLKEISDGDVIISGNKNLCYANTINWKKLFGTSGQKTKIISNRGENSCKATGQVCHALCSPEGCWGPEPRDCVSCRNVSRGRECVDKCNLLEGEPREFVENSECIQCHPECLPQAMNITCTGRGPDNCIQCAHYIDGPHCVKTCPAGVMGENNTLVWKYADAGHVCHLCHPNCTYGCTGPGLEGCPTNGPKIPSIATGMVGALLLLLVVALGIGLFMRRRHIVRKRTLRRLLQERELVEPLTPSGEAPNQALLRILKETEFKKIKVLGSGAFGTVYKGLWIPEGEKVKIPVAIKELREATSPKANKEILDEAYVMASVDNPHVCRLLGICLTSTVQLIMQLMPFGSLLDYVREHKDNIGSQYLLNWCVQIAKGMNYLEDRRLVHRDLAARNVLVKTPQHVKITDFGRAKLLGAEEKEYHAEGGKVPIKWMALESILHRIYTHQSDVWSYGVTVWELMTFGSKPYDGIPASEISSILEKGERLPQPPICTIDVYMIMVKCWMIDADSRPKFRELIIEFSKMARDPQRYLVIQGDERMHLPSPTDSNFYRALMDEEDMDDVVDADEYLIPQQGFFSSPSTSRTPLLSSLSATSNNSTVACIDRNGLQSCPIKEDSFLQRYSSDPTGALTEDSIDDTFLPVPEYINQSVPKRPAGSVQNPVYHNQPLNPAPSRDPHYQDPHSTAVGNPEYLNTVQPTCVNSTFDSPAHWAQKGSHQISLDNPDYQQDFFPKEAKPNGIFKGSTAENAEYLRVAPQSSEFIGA
Description: (§1) The ability of the compounds of the present invention to degrade the mutant EGFR protein was confirmed in Ba/F3 cells expressing normal EGFR, mutant EGFR^del19+T790M+C797S or mutant EGFR^L858R+T790M+C797S. A Western blot test using the EGFR antibody was performed.
(§2) Specifically, Ba/F3 cells expressing EGFR were cultured in RPMI 1640 (Gibco, NY, USA) containing 10% fetal bovine serum (FBS, Gibco, NY, USA). Cells expressing normal EGFR, mutant EGFR^del19+T790M+C797S or mutant EGFR^L858R+T790M+C797S were treated with the compounds of the present invention at concentrations of 0.1 μM and 1 μM, respectively, for 24 hours. After that, it was washed twice with phosphate buffered saline (PBS) and SDS-PAGE was performed with 30 μg of cell lysate. After the protein separated on the gel was transferred to a nitrocellulose membrane, the expression level of the EGFR protein was confirmed using an EGFR antibody (Santa Cruz biotechnology, Santacruz, CA, USA). EGFR bands separated by Western blotting were quantitatively analyzed with Fluo-S MultiImager (Bio-Rad, Hercules, CA, USA).

EGFR^del19+T790M+C797S = assay: EGFR protein degradation test (Western blot) in Ba/F3 cells expressing mutant EGFR del19+T790M+C797S (DTC); assay type: cell-based; settings: compounds at 0.1 μM and 1 μM, 24 hours, Western blot with EGFR antibody
Description: as §1, §2

SMILES	LTC (EGFR^L858R+T790M+C797S) protein degradation (EGFR^L858R+T790M+C797S)	DTC (EGFR^del19+T790M+C797S) protein degradation (EGFR^del19+T790M+C797S)
COc1cc(N2CCN(CCOCCOc3cccc4c3C(=O)N(C3CCC(=O)NC3=O)C4=O)CC2)ccc1Nc1ncc(Cl)c(Nc2ccccc2N(C)S(C)(=O)=O)n1 (stereo not shown) [Compound 12, N-(2-((5-chloro-2-((4-(4-(2-(2-((2-(2,6-dioxopiperidin-3-yl)-1,3-dioxoisoindolin-4-yl)oxy)ethoxy)ethyl)piperazin-1-yl)-2-methoxyphenyl)amino)pyrimidin-4-yl)amino)phenyl)N-methylmethanesulfonamide]	− (Protein degradation < 20%)	− (Protein degradation < 20%)
Cc1ncsc1-c1ccc(CNC(=O)[C@H]2C[C@@H](O)CN2C(=O)[C@@H](NC(=O)CCCCN2CCN(c3ccc(Nc4ncc(Cl)c(Nc5ccccc5N(C)S(C)(=O)=O)n4)cc3F)CC2)C(C)(C)C)cc1 [Compound 17, (2R,4R)-1-((S)-2-(5-(4-(4-((5-chloro-4-((2-(N-methylmethylsulfonamido)phenyl)amino)pyrimidin-2-yl)amino)-2-fluorophenyl)piperazin-1-yl)pentanamido)3,3-dimethylbutanoyl)4-hydroxy-N-(4-(4-methylthiazol-5-yl)benzyl)pyrrolidin-2-carboxamide]	− (Protein degradation < 20%)	+ (Protein degradation 20~80%)
Cc1ncsc1-c1ccc(CNC(=O)[C@H]2C[C@@H](O)CN2C(=O)[C@@H](NC(=O)CCCCN2CCN(C3CCN(c4ccc(Nc5ncc(Cl)c(Nc6ccccc6N(C)S(C)(=O)=O)n5)cc4F)CC3)CC2)C(C)(C)C)cc1 [Compound 18, (2R,4R)-1-((S)-2-(5-(4-(1-(4-((5-chloro-4-((2-(N-methylmethylsulfonamido)phenyl)amino)pyrimidin-2-yl)amino)-2-fluorophenyl)piperidin-4-yl)piperazin-1-yl)pentanamido)-3,3-dimethylbutanoyl)-4-hydroxy-N-(4-(4-methylthiazol-5-yl)benzyl)pyrrolidin-2-carboxamide]	− (Protein degradation < 20%)	− (Protein degradation < 20%)
Cc1ncsc1-c1ccc(CNC(=O)[C@H]2C[C@@H](O)CN2C(=O)[C@@H](NC(=O)CN2CCN(C3CCN(c4ccc(Nc5ncc(Cl)c(Nc6ccccc6N(C)S(C)(=O)=O)n5)cc4F)CC3)CC2)C(C)(C)C)cc1 [Compound 19, (2R,4R)-1-((S)-2-(2-(4-(1-(4-((5-chloro-4-((2-(N-methylmethylsulfonamido)phenyl)amino)pyrimidin-2-yl)amino)-2-fluorophenyl)piperidin-4-yl)piperazin-1-yl)acetamido)-3,3-dimethylbutanoyl)-4-hydroxy-N-(4-(4-methylthiazol-5-yl)benzyl)pyrrolidin-2-carboxamide]	+ (Protein degradation 20~80%)	++ (Protein degradation > 80%)
COc1cc(N2CCC(CN3CCN(CC(=O)Nc4cccc5c4C(=O)N(C4CCC(=O)NC4=O)C5=O)CC3)CC2)ccc1Nc1ncc(Cl)c(Nc2ccccc2N(C)S(C)(=O)=O)n1 (stereo not shown) [Compound 23, 2-(4-((1-(4-((5-chloro-4-((2-(N-methylmethylsulfonamido)phenyl)amino)pyrimidin-2-yl)amino)-3-methoxyphenyl)piperidin-4-yl)methyl)piperazin-1-yl)-N-(2-(2,6-dioxopiperidin-3-yl)-1,3-dioxoisoindolin-4-yl)acetamide]	− (Protein degradation < 20%)	− (Protein degradation < 20%)
COc1cc(N2CCN(CC3CCN(CC(=O)Nc4cccc5c4C(=O)N(C4CCC(=O)NC4=O)C5=O)CC3)CC2)ccc1Nc1ncc(Cl)c(Nc2ccccc2N(C)S(C)(=O)=O)n1 (stereo not shown) [Compound 25, 2-(4-((4-(4-((5-chloro-4-((2-(N-methylmethylsulfonamido)phenyl)amino)pyrimidin-2-yl)amino)-3-methoxyphenyl)piperazin-1-yl)methyl)piperidin-1-yl)-N-(2-(2,6-dioxopiperidin-3-yl)-1,3-dioxoisoindolin-4-yl)acetamide]	− (Protein degradation < 20%)	− (Protein degradation < 20%)
COc1cc(N2CCC(CN3CCC(C(=O)N[C@H](C(=O)N4C[C@H](O)C[C@H]4C(=O)NCc4ccc(-c5scnc5C)cc4)C(C)(C)C)CC3)CC2)ccc1Nc1ncc(Cl)c(Nc2ccccc2N(C)S(C)(=O)=O)n1 [Compound 29, 1-((1-(4-((5-chloro-4-((2-(N-methylmethylsulfonamido)phenyl)amino)pyrimidin-2-yl)amino)-3-methoxyphenyl)piperidin-4-yl)methyl)-N—((S)-1-((2S,4R)-4-hydroxy-2-((4-(4-methylthiazol-5-yl)benzyl)carbamoyl)pyrrolidin-1-yl)-3,3-dimethyl-1-oxobutan-2-yl)piperidin-4-carboxamide]	− (Protein degradation < 20%)	− (Protein degradation < 20%)

Further lines, with some results ahead:

LTC (EGFR^L858R+T790M+C797S) protein degradation (EGFR^L858R+T790M+C797S)	SMILES	DTC (EGFR^del19+T790M+C797S) protein degradation (EGFR^del19+T790M+C797S)
+ (Protein degradation 20~80%)	COc1cc(N2CCC(N3CCN(CCOCCOc4cccc5c4C(=O)N(C4CCC(=O)NC4=O)C5=O)CC3)CC2)ccc1Nc1ncc(Cl)c(Nc2ccccc2N(C)S(C)(=O)=O)n1 (stereo not shown) [Compound 13, N-(2-((5-chloro-2-((4-(4-(4-(2-(2-((2-(2,6-dioxopiperidin-3-yl)-1,3-dioxoisoindolin-4-yl)oxy)ethoxy)ethyl)piperazin-1-yl)piperidin-1-yl)-2-methoxyphenyl)amino)pyrimidin-4-yl)amino)phenyl)N-methylmethanesulfonamide]	+ (Protein degradation 20~80%)
+ (Protein degradation 20~80%)	COc1cc(N2CCN(CCCCOc3cccc4c3C(=O)N(C3CCC(=O)NC3=O)C4=O)CC2)ccc1Nc1ncc(Cl)c(Nc2ccccc2N(C)S(C)(=O)=O)n1 (stereo not shown) [Compound 14, N-(2-((5-chloro-2-((4-(4-(4-((2-(2,6-dioxopiperidin-3-yl)-1,3-dioxoisoindolin-4-yl)oxy)butyl)piperazin-1-yl)-2-methoxyphenyl)amino)pyrimidin-4-yl)amino)phenyl)-N-methylmethanesulfonamide]	− (Protein degradation < 20%)
+ (Protein degradation 20~80%)	COc1cc(N2CCC(N3CCN(CCCCOc4cccc5c4C(=O)N(C4CCC(=O)NC4=O)C5=O)CC3)CC2)ccc1Nc1ncc(Cl)c(Nc2ccccc2N(C)S(C)(=O)=O)n1 (stereo not shown) [Compound 15, N-(2-((5-chloro-2-((4-(4-(4-(4-((2-(2,6-dioxopiperidin-3-yl)-1,3-dioxoisoindolin-4-yl)oxy)butyl)piperazin-1-yl)piperidin-1-yl)-2-methoxyphenyl)amino)pyrimidin-4-yl)amino)phenyl)-N-methylmethanesulfonamide]	+ (Protein degradation 20~80%)
+ (Protein degradation 20~80%)	COc1cc(N2CCN(CCOCCNc3cccc4c3C(=O)N(C3CCC(=O)NC3=O)C4=O)CC2)ccc1Nc1ncc(Cl)c(Nc2ccccc2N(C)S(C)(=O)=O)n1 (stereo not shown) [Compound 16]	− (Protein degradation < 20%)
− (Protein degradation < 20%)	COc1cc(N2CCC(N3CCN(CC(=O)Nc4cccc5c4C(=O)N(C4CCC(=O)NC4=O)C5=O)CC3)CC2)ccc1Nc1ncc(Cl)c(Nc2ccccc2N(C)S(C)(=O)=O)n1 (stereo not shown) [Compound 21, 2-(4-(1-(4-((5-chloro-4-((2-(N-methylmethylsulfonamido)phenyl)amino)pyrimidin-2-yl)amino)-3-methoxyphenyl)piperidin-4-yl)piperazin-1-yl)-N-(2-(2,6-dioxopiperidin-3-yl)-1,3-dioxoisoindolin-4-yl)acetamide]	− (Protein degradation < 20%)
− (Protein degradation < 20%)	COc1cc(N2CCC3(CCN(CCC(=O)Nc4cccc5c4C(=O)N(C4CCC(=O)NC4=O)C5=O)CC3)CC2)ccc1Nc1ncc(Cl)c(Nc2ccccc2N(C)S(C)(=O)=O)n1 (stereo not shown) [Compound 30, 3-(9-(4-((5-chloro-4-((2-(N-methylmethylsulfonamido)phenyl)amino)pyrimidin-2-yl)amino)-3-methoxyphenyl)-3,9-diazaspiro[5,5]undecan-3-yl)-N-(2-(2,6-dioxopiperidin-3-yl)-1,3-dioxoisoindolin-4-yl)propanamide]	− (Protein degradation < 20%)
− (Protein degradation < 20%)	COc1cc(N2CC3(CN(CCC(=O)Nc4cccc5c4C(=O)N(C4CCC(=O)NC4=O)C5=O)C3)C2)ccc1Nc1ncc(Cl)c(Nc2ccccc2N(C)S(C)(=O)=O)n1 (stereo not shown) [Compound 32, 3-(6-(4-((5-chloro-4-((2-(N-methylmethylsulfonamido)phenyl)amino)pyrimidin-2-yl)amino)-3-methoxyphenyl)-2,6-diazaspiro[3,3]heptan-2-yl)-N-(2-(2,6-dioxopiperidin-3-yl)-1,3-dioxoisoindolin-4-yl)propanamide]	− (Protein degradation < 20%)
